Experimental data reported in the supplement of paper PMC10307832.

Experiments:
Test in all cases: relative viability (nuclei count vs DMSO), 5 days (fraction); higher = more cells survive
CUDC-101 + Crizotinib = compound: C#Cc1cccc(Nc2ncnc3cc(OC)c(OCCCCCCC(=O)NO)cc23)c1 [CUDC-101] + C[C@@H](Oc1cc(-c2cnn(C3CCNCC3)c2)cnc1N)c1c(Cl)ccc(F)c1Cl [Crizotinib] (partner 1 µM)
Procedure, shortened: (§1)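 Lung cancer cell lines in 1536-well plates were dosed by pin tool the day after seeding, either with one drug alone or with a fixed anchor-drug dose plus five library-drug doses (not always all listed) in √10 steps. After 5 days, cells were fixed and their nuclei stained in one step (final 0.05% Triton X-100, 1% formaldehyde, 1 ug/ml Hoechst), then counted on 4× images. Relative viability is the nuclei count in treated wells divided by that in vehicle wells. Values are medians of duplicate plates.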

NVP-TAE684 + Foretinib = compound: COc1cc(N2CCC(N3CCN(C)CC3)CC2)ccc1Nc1ncc(Cl)c(Nc2ccccc2S(=O)(=O)C(C)C)n1 [NVP-TAE684] + COc1cc2c(Oc3ccc(NC(=O)C4(C(=O)Nc5ccc(F)cc5)CC4)cc3F)ccnc2cc1OCCCN1CCOCC1 [Foretinib] (partner 0.25 µM)
Procedure, shortened: as §1

NVP-TAE684 + Pemetrexed = compound: COc1cc(N2CCC(N3CCN(C)CC3)CC2)ccc1Nc1ncc(Cl)c(Nc2ccccc2S(=O)(=O)C(C)C)n1 [NVP-TAE684] + Nc1nc2[nH]cc(CCc3ccc(C(=O)N[C@@H](CCC(=O)O)C(=O)O)cc3)c2c(=O)[nH]1 [Pemetrexed] (partner 0.2 µM)
Procedure, shortened: as §1

NVP-TAE684 + Decitabine = compound: COc1cc(N2CCC(N3CCN(C)CC3)CC2)ccc1Nc1ncc(Cl)c(Nc2ccccc2S(=O)(=O)C(C)C)n1 [NVP-TAE684] + Nc1ncn([C@H]2C[C@H](O)[C@@H](CO)O2)c(=O)n1 [Decitabine] (partner 2 µM)
Procedure, shortened: as §1

Vandetanib + Lapatinib = compound: COc1cc2/c(=N/c3ccc(Br)cc3F)nc[nH]c2cc1OCC1CCN(C)CC1 [Vandetanib] + CS(=O)(=O)CCNCc1ccc(-c2ccc3ncnc(Nc4ccc(OCc5cccc(F)c5)c(Cl)c4)c3c2)o1 [Lapatinib] (partner 2 µM)
Procedure, shortened: as §1

Cell Line | relative viability (CUDC-101 + Crizotinib; first compound 0.01 µM) | relative viability (CUDC-101 + Crizotinib; first compound 0.03162 µM) | relative viability (CUDC-101 + Crizotinib; first compound 0.1 µM) | relative viability (CUDC-101 + Crizotinib; first compound 0.3162 µM) | relative viability (CUDC-101 + Crizotinib; first compound 1 µM) | relative viability (NVP-TAE684 + Foretinib; first compound 0.2 µM) | relative viability (NVP-TAE684 + Foretinib; first compound 0.6325 µM) | relative viability (NVP-TAE684 + Foretinib; first compound 2 µM) | relative viability (NVP-TAE684 + Pemetrexed; first compound 0.2 µM) | relative viability (NVP-TAE684 + Pemetrexed; first compound 0.6325 µM) | relative viability (NVP-TAE684 + Pemetrexed; first compound 2 µM) | relative viability (NVP-TAE684 + Decitabine; first compound 0.2 µM) | relative viability (NVP-TAE684 + Decitabine; first compound 0.6325 µM) | relative viability (NVP-TAE684 + Decitabine; first compound 2 µM) | relative viability (Vandetanib + Lapatinib; first compound 0.02 µM) | relative viability (Vandetanib + Lapatinib; first compound 0.06325 µM) | relative viability (Vandetanib + Lapatinib; first compound 0.2 µM) | relative viability (Vandetanib + Lapatinib; first compound 0.6325 µM) | relative viability (Vandetanib + Lapatinib; first compound 2 µM)
HCC-827 | 0.966 | 0.501 | 0.298 | 0.218 | 0.174 | 1.16 | 1.02 | 0.874 | 0.259 | 0.262 | 0.261 | 0.301 | 0.279 | 0.311 | 0.195 | 0.18 | 0.183 | 0.181 | 0.185
LXF-289 | 0.804 | 0.835 | 0.828 | 0.736 | 0.577 | 1.05 | 0.958 | 0.715 | 0.874 | 0.983 | 0.805 | 0.433 | 0.384 | 0.267 | 0.899 | 0.842 | 0.89 | 0.871 | 0.887
HOP-62 | 0.95 | 0.753 | 1.03 | 0.925 | 0.666 | 1.21 | 1.12 | 1.12 | 0.34 | 0.392 | 0.345 | 0.242 | 0.236 | 0.266 | 0.81 | 0.923 | 1.07 | 0.932 | 0.892
LOU-NH91 | 0.701 | 0.605 | 0.699 | 0.521 | 0.539 | 0.892 | 0.92 | 0.801 | 0.364 | 0.349 | 0.437 | 0.801 | 0.782 | 0.645 | 0.739 | 0.761 | 0.783 | 0.764 | 0.799
NCI-H1915 | 0.982 | 0.941 | 0.889 | 0.837 | 0.627 | 1.04 | 1.1 | 0.902 | 0.537 | 0.463 | 0.472 | 0.284 | 0.263 | 0.257 | 0.905 | 0.972 | 1.05 | 0.93 | 0.928
COR-L23 | 0.677 | 0.674 | 0.626 | 0.555 | 0.295 | 0.967 | 0.996 | 0.332 | 0.205 | 0.203 | 0.197 | 0.415 | 0.339 | 0.252 | 1.08 | 0.906 | 1.03 | 0.96 | 1.01
NCI-H1734 | 0.778 | 0.699 | 0.566 | 0.583 | 0.397 | 0.802 | 0.824 | 0.354 | 0.47 | 0.437 | 0.348 | 0.466 | 0.347 | 0.432 | 0.951 | 1.02 | 1.11 | 1.04 | 0.991
NCI-H2405 | 0.809 | 0.788 | 0.843 | 0.924 | 0.765 | 1 | 0.966 | 0.575 | 1.17 | 0.901 | 0.567 | 0.684 | 0.683 | 0.397 | 1.1 | 0.842 | 1.25 | 1.14 | 0.316
NCI-H2087 | 0.798 | 0.959 | 0.804 | 0.855 | 0.642 | 1.05 | 1.2 | 0.638 | 0.679 | 0.707 | 0.57 | 0.305 | 0.261 | 0.192 | 0.894 | 0.916 | 0.988 | 1.06 | 1.08
NCI-H2085 | 0.865 | 0.861 | 0.772 | 0.779 | 0.682 | 0.987 | 0.967 | 0.485 | 1.01 | 0.874 | 0.813 | 0.533 | 0.458 | 0.458 | 0.749 | 0.706 | 0.837 | 0.868 | 0.748
NCI-H358 | 0.558 | 0.581 | 0.435 | 0.497 | 0.236 | 0.736 | 0.672 | 0.099 | 0.166 | 0.151 | 0.13 | 0.198 | 0.197 | 0.0907 | 0.38 | 0.397 | 0.445 | 0.419 | 0.434
NCI-H2023 | 0.623 | 0.602 | 0.622 | 0.628 | 0.558 | 0.656 | 0.739 | 0.461 | 0.258 | 0.186 | 0.123 | 0.238 | 0.199 | 0.0999 | 0.814 | 0.694 | 0.763 | 0.943 | 0.854
SW 1573 | 0.805 | 0.804 | 0.927 | 1.09 | 0.423 | 0.916 | 0.951 | 0.599 | 0.843 | 0.732 | 0.396 | 0.526 | 0.497 | 0.104 | 1.07 | 1.21 | 0.599 | 1.2 | 1.17
NCI-H3122 | 0.265 | 0.282 | 0.271 | 0.317 | 0.265 | 0.218 | 0.274 | 0.101 | 0.159 | 0.117 | 0.114 | 0.152 | 0.109 | 0.103 | 1.05 | 0.975 | 1.04 | 1.06 | 1
